According to patent US5143906A, “Kedarcidin antitumor chromophore and pharmaceutical composition containing same” (Bristol-Myers Squibb Company, priority 1991, dated 1992):
Values after ≈ are worked out from the molar mass of the structure shown.

Experiments:
[1] = system: ip implanted P388 leukemia; test: Antitumor activity against ip implanted P388 leukemia; type: in vivo, murine (CDF1 mice)
Excerpt: The P388 tumor was maintained in ascitic form in DBA/2 mice. Experimental tumor models used CDF^1 mice implanted via the intraperitoneal or intravenous route with 1×10^6 leukemia cells on day 0 and dosed with drugs according to the indicated route and schedule. Mice were weighed on day 0 and on day 5 or 6. Weight loss of 20% or greater was an indicator of drug toxicity. Each dose group consisted of 6 mice with 10 mice in the untreated control group. The dosing schedule was Q1DX1;1. Death checks were performed daily and the median life span of each group determined. […] Experiments were terminated on or about day 30.

[2] = system: HCT116/VM46 drug resistant cell line; test: In vitro cytotoxicity assay (XTT), HCT116/VM46; type: cell-based, human
Experimental: The A2780/DDP cell line is reported to be resistant through enhanced DNA repair mechanisms and elevated GSH/GST levels. Cells were cultured in McCoy's media and 10% fetal bovine serum. When in log phase growth, 4×10^3 cells/well were plated into 96 well microtiter plates and incubated at 37° C. in […] /5% CO2 for 24 hours to allow cell attachment. Compounds were added to the top row of wells, serially diluted (4 fold dilutions) and incubated for an additional 72 hours. The number of viable cells in each well was then quantitated as previously described^2 by adding 0.05 mg/ml final concentration tetrazolium stain (XTT) in the presence of 0.005 mM final concentration phenazine methosulfate. After incubation at room temperature for 3 hours to allow color development, optical density values were measured using a Dynatech MR600 plate reader at […]. IC50 values (drug concentration inhibiting cell growth by 50%) were calculated using linear regression analysis of the optical density readings. Triplicate determinations on separate 96 well plates were done for each drug on each cell line tested.

Structure (SMILES): COc1c(OC(C)C)cc2cc(O)c(C(=O)N[C@@H]3CC(=O)OC[C@@H](O[C@H]4C[C@H](O)[C@H](N(C)C)[C@H](C)O4)/C4=C/C#C[C@@H]5O[C@]56C(=C[C@H](Oc5ccc3nc5Cl)[C@@H]6O[C@H]3C[C@@](C)(O)[C@@H](O)[C@H](C)O3)C#C4)cc2c1OC [Kedarcidin chromophore]
- % T/C ([1]; Exp. 8305, 0.125 mg/kg/dose): 145%
- Av. wgt. change ([1]; Exp. 8305, 0.125 mg/kg/dose): 0.1 g
- Med. surv. time ([1]; Exp. 8305, 0.125 mg/kg/dose): 14.5
- No. of mice alive on d 5 ([1]; Exp. 8305, 0.125 mg/kg/dose): 6/6
- % T/C ([1]; Exp. 8305, 0.25 mg/kg/dose): 150%
- Av. wgt. change ([1]; Exp. 8305, 0.25 mg/kg/dose): -0.4 g
- Med. surv. time ([1]; Exp. 8305, 0.25 mg/kg/dose): 15.0
- No. of mice alive on d 5 ([1]; Exp. 8305, 0.25 mg/kg/dose): 6/6
- % T/C ([1]; Exp. 8305, 0.5 mg/kg/dose): 165%
- Av. wgt. change ([1]; Exp. 8305, 0.5 mg/kg/dose): -0.5 g
- Med. surv. time ([1]; Exp. 8305, 0.5 mg/kg/dose): 16.5
- No. of mice alive on d 5 ([1]; Exp. 8305, 0.5 mg/kg/dose): 6/6
- % T/C ([1]; Exp. 8305, 1 mg/kg/dose): 175%
- Av. wgt. change ([1]; Exp. 8305, 1 mg/kg/dose): -0.3 g
- Med. surv. time ([1]; Exp. 8305, 1 mg/kg/dose): 17.5
- No. of mice alive on d 5 ([1]; Exp. 8305, 1 mg/kg/dose): 6/6
- % T/C ([1]; Exp. 8305, 2 mg/kg/dose): 105%
- Av. wgt. change ([1]; Exp. 8305, 2 mg/kg/dose): -2.2 g
- Med. surv. time ([1]; Exp. 8305, 2 mg/kg/dose): 10.5
- No. of mice alive on d 5 ([1]; Exp. 8305, 2 mg/kg/dose): 6/6
- % T/C ([1]; Exp. 8305, 4 mg/kg/dose): 90%
- Av. wgt. change ([1]; Exp. 8305, 4 mg/kg/dose): -3.6 g
- Med. surv. time ([1]; Exp. 8305, 4 mg/kg/dose): 9.0
- No. of mice alive on d 5 ([1]; Exp. 8305, 4 mg/kg/dose): 6/6
- optimal dose ([1]; Exp. 8305, ip one day after tumor implant): 1 mg/kg/inj
- % T/C ([1]; Exp. 8328, 0.25 mg/kg/dose): 185%
- Av. wgt. change ([1]; Exp. 8328, 0.25 mg/kg/dose): -0.4 g
- Med. surv. time ([1]; Exp. 8328, 0.25 mg/kg/dose): 18.5
- No. of mice alive on d 5 ([1]; Exp. 8328, 0.25 mg/kg/dose): 6/6
- % T/C ([1]; Exp. 8328, 0.5 mg/kg/dose): 130%
- Av. wgt. change ([1]; Exp. 8328, 0.5 mg/kg/dose): -1.1 g
- Med. surv. time ([1]; Exp. 8328, 0.5 mg/kg/dose): 13.0
- No. of mice alive on d 5 ([1]; Exp. 8328, 0.5 mg/kg/dose): 6/6
- % T/C ([1]; Exp. 8328, 1.0 mg/kg/dose): 90%
- Av. wgt. change ([1]; Exp. 8328, 1.0 mg/kg/dose): -2.3 g
- Med. surv. time ([1]; Exp. 8328, 1.0 mg/kg/dose): 9.0
- No. of mice alive on d 5 ([1]; Exp. 8328, 1.0 mg/kg/dose): 6/6
- % T/C ([1]; Exp. 8328, 2.0 mg/kg/dose): TOX
- Av. wgt. change ([1]; Exp. 8328, 2.0 mg/kg/dose): -1.9 g
- Med. surv. time ([1]; Exp. 8328, 2.0 mg/kg/dose): TOX
- No. of mice alive on d 5 ([1]; Exp. 8328, 2.0 mg/kg/dose): 2/6
- optimal dose ([1]; Exp. 8328, ip, Q1DX1;1): 0.25 mg/kg/inj
- cross-resistance with VP-16 ([2]; HCT116/VM46): not cross-resistant
- IC50 ([2]; HCT116/VM46, 72 h, VP-16 values: mean of triplicate determinations from last 6 experiments): 0.3 ng/mL (≈ 0.291 nM)
